According to ChEMBL document CHEMBL5352446, “Synthesis and biological evaluation of a novel c-Myc inhibitor against colorectal cancer via blocking c-Myc/Max heterodimerization and disturbing its DNA binding” (Eur J Med Chem, 2022):
Calls of active or inactive are those of the source. The calls are words filed in the database; no cut-off is given here.

Experiments:
HT-29 [1] = experiment: Induction of apoptosis in human HT-29 cells assessed as early apoptotic cells at 2.5 uM incubated for 24 hrs by FITC Annexin-V and PI staining based flow cytometry analysis (reference value: 2.15%); assay type: functional
HCT-116 = experiment: Inhibition of colony formation in human HCT-116 cells measured after 14 days by crystal violet staining based assay; assay type: functional, cell-based; details: dose 0.25-2 µM, time 14.0 day
[2] = Toxicity in BALB/c mouse xenografted with human HT-29 cells assessed as liver damage at 40 to 80 mg/kg, ip measured after 21 days by H and E staining based assay; assay type: organism-based; details: in vivo, 504 h, dose 40-80 mg/kg, time 21 day
[3] = Toxicity in BALB/c mouse xenografted with human HT-29 cells assessed as heart damage at 40 to 80 mg/kg, ip measured after 21 days by H and E staining based assay; assay type: organism-based; details: in vivo, 504 h, dose 40-80 mg/kg, time 21 day
Homo sapiens = species: Homo sapiens; experiment: Inhibition of human c-Myc (353 to 439 residues)/Max(S) (151 residues) expressed in Escherichia coli BL21(DE3) binding to biotinylated double-stranded DNA oligonucleotide 5'-CACCCGGTCACTGGCCTACAC-3' (unknown origin) at 20 uM preincubated for 90 mins followed by oligonucleotide addition for 25 mins by EMSA; details: time 115.0 min
HCT-8 = experiment: Antiproliferative activity against human HCT-8 cells incubated for 72 hrs by MTT assay; assay type: functional, cell-based; details: HCT-8, 72 h
HT-29 [4] = experiment: Downregulation of c-Myc expression in human HT-29 cells at 10 uM incubated for 24 hrs by Western blot analysis; assay type: functional, cell-based
HT-29 [5] = experiment: Induction of cell cycle arrest in human HT-29 cells assessed as accumulation of cells at S phase at 1.25 uM incubated for 24 hrs by propidium iodide staining based flow cytometry analysis (reference value: 12.01 %); assay type: functional
HT-29 [6] = experiment: Induction of apoptosis in human HT-29 cells assessed as downregulation of Bcl-2 expression incubated for 24 hrs by Western blot analysis; assay type: functional, cell-based; details: dose 2.5-10 µM
HT-29 [7] = experiment: Induction of apoptosis in human HT-29 cells assessed as viable cells at 10 uM incubated for 24 hrs by FITC Annexin-V and PI staining based flow cytometry analysis (reference value: 96.94%); assay type: functional; details: read-out: Activity
HT-29 [8] = experiment: Induction of apoptosis in human HT-29 cells assessed as late apoptotic cells at 1.25 uM incubated for 24 hrs by FITC Annexin-V and PI staining based flow cytometry analysis (reference value: 0.78%); assay type: functional
HT-29 [9] = experiment: Induction of cell cycle arrest in human HT-29 cells assessed as accumulation of cells at S phase at 5 uM incubated for 24 hrs by propidium iodide staining based flow cytometry analysis (reference value: 12.01 %); assay type: functional
HT-29 [10] = experiment: Induction of cell cycle arrest in human HT-29 cells assessed as accumulation of cells at G2 phase at 1.25 uM incubated for 24 hrs by propidium iodide staining based flow cytometry analysis (reference value: 16.33 %); assay type: functional
HT-29 [11] = experiment: Induction of apoptosis in human HT-29 cells assessed as necrotic cells at 0.625 uM incubated for 24 hrs by FITC Annexin-V and PI staining based flow cytometry analysis (reference value: 0.13%); assay type: functional
HT-29 [12] = experiment: Antitumor activity against human HT-29 cells xenografted in ip dosed BALB/c mouse assessed as tumor growth inhibition administered daily for 3 weeks by caliper method; assay type: functional, organism-based; details: dose 40-80 mg/kg
HT-29 [13] = experiment: Induction of apoptosis in human HT-29 cells assessed as upregulation of Bax expression incubated for 24 hrs by Western blot analysis; assay type: functional, cell-based; details: dose 2.5-10 µM
HT-29 [14] = experiment: Induction of cell cycle arrest in human HT-29 cells assessed as accumulation of cells at S phase at 0.625 uM incubated for 24 hrs by propidium iodide staining based flow cytometry analysis (reference value: 12.01 %); assay type: functional
HT-29 [15] = experiment: Induction of apoptosis in human HT-29 cells assessed as necrotic cells at 1.25 uM incubated for 24 hrs by FITC Annexin-V and PI staining based flow cytometry analysis (reference value: 0.13%); assay type: functional
[16] = Toxicity in BALB/c mouse xenografted with human HT-29 cells assessed as body weight loss at 40 to 80 mg/kg, ip measured after 21 days; assay type: organism-based; details: in vivo, 504 h, dose 40-80 mg/kg, time 21 day
[17] = Toxicity in BALB/c mouse xenografted with human HT-29 cells assessed as kidney damage at 40 to 80 mg/kg, ip measured after 21 days by H and E staining based assay; assay type: organism-based; details: in vivo, 504 h, dose 40-80 mg/kg, time 21 day
HCT-15 = experiment: Antiproliferative activity against human HCT-15 cells incubated for 72 hrs by MTT assay; assay type: functional, cell-based; details: HCT-15, 72 h
HT-29 [18] = experiment: Induction of cell cycle arrest in human HT-29 cells assessed as accumulation of cells at G1 phase at 2.5 uM incubated for 24 hrs by propidium iodide staining based flow cytometry analysis (reference value: 65.37 %); assay type: functional
HT-29 [19] = experiment: Induction of cell cycle arrest in human HT-29 cells assessed as accumulation of cells at S phase at 2.5 uM incubated for 24 hrs by propidium iodide staining based flow cytometry analysis (reference value: 12.01 %); assay type: functional
[20] = Toxicity in BALB/c mouse xenografted with human HT-29 cells assessed as spleen damage at 40 mg/kg, ip measured after 21 days by H and E staining based assay; assay type: organism-based; details: in vivo, 504 h, time 21 day
HT-29 [21] = experiment: Induction of apoptosis in human HT-29 cells assessed as viable cells at 2.5 uM incubated for 24 hrs by FITC Annexin-V and PI staining based flow cytometry analysis (reference value: 96.94%); assay type: functional; details: read-out: Activity
[22] = Toxicity in BALB/c mouse xenografted with human HT-29 cells assessed as spleen damage at 40 to 80 mg/kg, ip measured after 21 days by H and E staining based assay; assay type: organism-based; details: in vivo, 504 h, dose 40-80 mg/kg, time 21 day
HT-29 [23] = experiment: Induction of apoptosis in human HT-29 cells assessed as viable cells at 1.25 uM incubated for 24 hrs by FITC Annexin-V and PI staining based flow cytometry analysis (reference value: 96.94%); assay type: functional; details: read-out: Activity
HT-29 [24] = experiment: Antitumor activity against human HT-29 cells xenografted in BALB/c mouse assessed as tumor growth inhibition at 80 mg/kg, ip administered daily for 3 weeks by caliper method; assay type: functional; details: HT-29, 504 h, read-out: TGI
HT-29 [25] = experiment: Induction of apoptosis in human HT-29 cells assessed as late apoptotic cells at 0.625 uM incubated for 24 hrs by FITC Annexin-V and PI staining based flow cytometry analysis (reference value: 0.78%); assay type: functional
HT-29 [26] = experiment: Induction of apoptosis in human HT-29 cells assessed as necrotic cells at 5 uM incubated for 24 hrs by FITC Annexin-V and PI staining based flow cytometry analysis (reference value: 0.13%); assay type: functional
HT-29 [27] = experiment: Induction of apoptosis in human HT-29 cells assessed as viable cells at 5 uM incubated for 24 hrs by FITC Annexin-V and PI staining based flow cytometry analysis (reference value: 96.94%); assay type: functional; details: read-out: Activity
HT-29 [28] = experiment: Induction of apoptosis in human HT-29 cells assessed as upregulation of BAD expression incubated for 24 hrs by Western blot analysis; assay type: functional, cell-based; details: dose 2.5-10 µM
HT-29 [29] = experiment: Induction of cell cycle arrest in human HT-29 cells assessed as accumulation of cells at G2 phase at 5 uM incubated for 24 hrs by propidium iodide staining based flow cytometry analysis (reference value: 16.33 %); assay type: functional
[30] = Toxicity in BALB/c mouse xenografted with human HT-29 cells assessed as lung damage at 40 to 80 mg/kg, ip measured after 21 days by H and E staining based assay; assay type: organism-based; details: in vivo, 504 h, dose 40-80 mg/kg, time 21 day

Question: With `COc1cc(Oc2ccc(Nc3ccc(CCCO)cc3)cc2)cc(OC)c1CNCCc1ccc(C(F)(F)F)cc1` as the compound, how does the Activity (HT-29 [1]) read?
Answer: 19.39%

Question: And the inhibition (HCT-116)?
Answer: Dose-Dependent Effect

Question: What about the Activity [2] of the same compound?
Answer: Non-Toxic

Question: And the Activity [3]?
Answer: Non-Toxic

Question: And the inhibition (Homo sapiens)?
Answer: 100%

Question: What about the IC50 (HCT-8) of the same compound?
Answer: 3.12 µM

Question: And the Activity (HT-29 [4])?
Answer: Active

Question: And the Activity (HT-29 [5])?
Answer: 13.16%

Question: And the Activity (HT-29 [6])?
Answer: Dose-Dependent Effect

Question: And the viability at 10 µM (HT-29 [7])?
Answer: 55.6%

Question: And the Activity (HT-29 [8])?
Answer: 4.55%

Question: What about the Activity (HT-29 [9]) of the same compound?
Answer: 12.16%

Question: What about the Activity (HT-29 [10]) of the same compound?
Answer: 11.24%

Question: What about the Activity (HT-29 [11]) of the same compound?
Answer: 1.44%

Question: And the Activity (HT-29 [12])?
Answer: Dose-Dependent Effect

Question: And the Activity (HT-29 [13])?
Answer: Dose-Dependent Effect

Question: And the Activity (HT-29 [14])?
Answer: 14.41%

Question: What about the Activity (HT-29 [15]) of the same compound?
Answer: 1.72%

Question: What about the Activity [16] of the same compound?
Answer: Non-Toxic

Question: And the Activity [17]?
Answer: Non-Toxic

Question: And the IC50 (HCT-15)?
Answer: 2.34 µM

Question: What about the Activity (HT-29 [18]) of the same compound?
Answer: 75.57%

Question: And the Activity (HT-29 [19])?
Answer: 14.32%

Question: And the Activity [20]?
Answer: Toxic

Question: What about the viability at 2.5 µM (HT-29 [21]) of the same compound?
Answer: 69.6%

Question: And the Activity [22]?
Answer: Non-Toxic

Question: And the viability at 1.25 µM (HT-29 [23])?
Answer: 81%

Question: And the inhibition in vivo at 80 mg/kg (HT-29 [24])?
Answer: 78.4%

Question: And the Activity (HT-29 [25])?
Answer: 3.14%

Question: And the Activity (HT-29 [26])?
Answer: 1.29%

Question: What about the viability at 5 µM (HT-29 [27]) of the same compound?
Answer: 69%

Question: What about the Activity (HT-29 [28]) of the same compound?
Answer: Dose-Dependent Effect

Question: And the Activity (HT-29 [29])?
Answer: 8.51%

Question: And the Activity [30]?
Answer: Non-Toxic
